In US20220370545A1, “INTEGRIN RECEPTOR ALPHA V BETA 3 AND ITS LIGAND INVOLVED IN CHRONIC ITCH” (North Carolina State University, priority 2019, published 2022):

B1: periostin: fasciclin extracellular matrix protein, endogenous ligand of integrin αvβ3; mouse recombinant used (protein)
chain: NSYYDKVLAHSRIRGRDQGPNVCALQQILGTKKKYFSSCKNWYQGAICGKKTTVLYECCPGYMRMEGMKGCPAVMPIDHVYGTLGIVGATTTQHYSDVSKLREEIEGKGSYTYFAPSNEAWENLDSDIRRGLENNVNVELLNALHSHMVNKRMLTKDLKHGMVIPSMYNNLGLFINHYPNGVVTVNCARVIHGNQIATNGVVHVIDRVLTQIGTSIQDFLEAEDDLSSFRAAAITSDLLESLGRDGHFTLFAPTNEAFEKLPRGVLERIMGDKVASEALMKYHILNTLQCSEAITGGAVFETMEGNTIEIGCEGDSISINGIKMVNKKDIVTKNGVIHLIDEVLIPDSAKQVIELAGKQQTTFTDLVAQLGLASSLKPDGEYTLLAPVNNAFSDDTLSMDQRLLKLILQNHILKVKVGLSDLYNGQILETIGGKQLRVFVYRTAICIENSCMVRGSKQGRNGAIHIFREIIQPAEKSLHDKLRQDKRFSIFLSLLEAADLKDLLTQPGDWTLFAPTNDAFKGMTSEERELLIGDKNALQNIILYHLTPGVYIGKGFEPGVTNILKTTQGSKIYLKGVNETLLVNELKSKESDIMTTNGVIHVVDKLLYPADIPVGNDQLLELLNKLIKYIQIKFVRGSTFKEIPMTVYRPAMTKIQIEGDPDFRLIKEGETVTEVIHGEPVIKKYTKIIDGVPVEITEKQTREERIITGPEIKYTRISTGGGETGETLQKFLQKEVSKVTKFIEGGDGHLFEDEEIKRLLQGDTPAKKIPANKRVQGPRRRSREGRSQ

Columns and labels:
TRPV1 receptor = molecular target: T1, TRPV1 receptor (Mus musculus, UniProt Q704Y3); assay: Capsaicin-induced calcium response in DRG neurons (specificity control); assay type: cell-based; conditions: perfusion with 100 nM cilengitide
T1 construct: endogenous in cells; host or cells: primary mouse dorsal root ganglion neurons
T1 sequence (Q704Y3 whole entry, the tested form may be a part): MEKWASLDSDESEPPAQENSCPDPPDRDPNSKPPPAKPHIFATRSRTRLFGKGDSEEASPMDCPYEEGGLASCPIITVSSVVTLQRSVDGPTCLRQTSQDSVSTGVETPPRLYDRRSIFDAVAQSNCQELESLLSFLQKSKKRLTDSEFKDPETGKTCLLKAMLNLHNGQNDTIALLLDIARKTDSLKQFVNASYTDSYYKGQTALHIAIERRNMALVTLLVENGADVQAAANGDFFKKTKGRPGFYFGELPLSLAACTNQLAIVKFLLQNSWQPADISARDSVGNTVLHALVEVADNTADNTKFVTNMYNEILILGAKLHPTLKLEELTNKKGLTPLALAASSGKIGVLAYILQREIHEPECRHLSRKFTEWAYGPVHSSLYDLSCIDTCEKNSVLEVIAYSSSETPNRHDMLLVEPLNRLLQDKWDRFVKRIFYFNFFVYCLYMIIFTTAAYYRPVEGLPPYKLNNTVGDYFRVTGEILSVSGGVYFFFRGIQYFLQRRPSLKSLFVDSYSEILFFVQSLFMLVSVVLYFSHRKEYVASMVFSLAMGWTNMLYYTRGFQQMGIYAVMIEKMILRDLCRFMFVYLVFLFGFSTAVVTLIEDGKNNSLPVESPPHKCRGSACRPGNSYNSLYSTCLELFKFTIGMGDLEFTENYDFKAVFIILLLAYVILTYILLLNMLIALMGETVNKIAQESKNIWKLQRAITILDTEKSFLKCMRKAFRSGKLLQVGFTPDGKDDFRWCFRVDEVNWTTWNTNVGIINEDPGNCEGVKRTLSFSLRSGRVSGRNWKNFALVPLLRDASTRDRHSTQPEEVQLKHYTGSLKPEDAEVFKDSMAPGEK
Experimental: (§1) Before imaging, cells were incubated in 350 μL of complete media containing 1 μM Fura-2 AM (Enzo Life Sciences, Farmingdale, New York, United States of America) for 30 min at 37° C. with 5% CO2. During imaging, the cells were perfused with a buffer containing the following: 135 mM sodium chloride, 3.2 mM potassium chloride, 2.5 mM magnesium chloride, 2.8 mM calcium chloride, 667 μM monobasic sodium phosphate, 14.2 mM sodium bicarbonate, and 10.9 mM D-glucose (all from VWR International, Radnor, Pennsylvania, United States of America) with a pH between 7.00 and 7.40. The buffer and the holding plate were kept at 37° C. while imaging. Imaging data was collected on a TE200 inverted microscope using NIS Elements software (Nikon, Melville, New York, United States of America). Cells were exposed to 340 nm and 380 nm wavelengths for 100 ms and the A340/A380 ratio was calculated. Traces were analyzed using Excel and responses greater than 10% of the baseline were counted. Each data point in the scatter plots represented one coverslip.
Calcium Imaging: Calcium imaging will be performed on the DRG neurons as previously described (Pitake et al., 2018). Briefly, DRG neurons will be incubated for longer than 30 min in DMEM containing 1 μM of a fluorescent indicator Fura-2 AM (Enzo Life Sciences, Inc., Farmingdale, N.Y., United States of America). The neurons will be perfused in a standard bath solution containing 140 mM NaCl, 5 mM KCl, 2 mM MgCl2, 2 mM CaCl2, 10 mM Hepes and 10 mM D-glucose at pH 7.4 adjusted with NaOH. A calcium-free bath solution will be prepared by omitting 2 mM CaCl2 from the standard bath solution […] adding 5 mM EGTA. Fura-2 fluorescence excited at 340 and 380 nm and emission will be monitored at 510 nm with a digital CCD camera (Andor Clara DR-4152, Andor Technology Ltd, Belfast, United Kingdom). Data will be obtained by every 100 ms using an imaging software (NIS-Elements AR 4.13.04, Nikon Corporation, Tokyo, Japan) and analyzed by Microsoft Excel (Microsoft Corporation, Redmond, Wash., United States of America). Values of calcium responses will be normalized by dividing measured values (F) with average values of initial 5 frames (F0) of each cell and described as F/F0. In this study, changes in each response to an application with F/F0>0.1 will be regarded as positive. Cells not responding to 100 mM KCl, which is applied at the end of each experiment, will be regarded as non-neuronal cells and excluded from analysis.
Additional inhibitors were studied using the calcium imaging method described in Example 3. Briefly, the Fura2-AM calcium imaging method was performed on live dorsal root ganglia (DRG) neurons (ex vivo). The DRG neurons are pre-incubated with the inhibitors P11 (Catalog #4744, Tocris Bioscience, Bristol, United Kingdom) and LM609 (Catalog #MAB1876, Millipore Sigma, Burlington, Mass., United States of America) or vehicle for 10 minutes and further stimulated with periostin or capsaicin in the presence of inhibitors. For Echistatin (Catalog #3202/100U, R&D Biosystems, Minneapolis, Minn., United States of America), MK-0429, and SB273005 (Catalog #S75-40, Selleck Chemicals Llc, Houston, Tex., United States of America), the DRG neurons were perfused with a normal Locke buffer vehicle or modified Locke buffer as described below. The values were normalized with KCl ([…]) to identify neuronal responses in all the calcium response data below.

TRPA1 = molecular target: T2, TRPA1 (Mus musculus, UniProt Q8BLA8); assay: AITC (mustard)-induced calcium response in DRG neurons (specificity control); assay type: cell-based; conditions: perfusion with 100 nM cilengitide
T2 construct: endogenous in cells; host or cells: primary mouse dorsal root ganglion neurons
T2 sequence (Q8BLA8 whole entry, the tested form may be a part): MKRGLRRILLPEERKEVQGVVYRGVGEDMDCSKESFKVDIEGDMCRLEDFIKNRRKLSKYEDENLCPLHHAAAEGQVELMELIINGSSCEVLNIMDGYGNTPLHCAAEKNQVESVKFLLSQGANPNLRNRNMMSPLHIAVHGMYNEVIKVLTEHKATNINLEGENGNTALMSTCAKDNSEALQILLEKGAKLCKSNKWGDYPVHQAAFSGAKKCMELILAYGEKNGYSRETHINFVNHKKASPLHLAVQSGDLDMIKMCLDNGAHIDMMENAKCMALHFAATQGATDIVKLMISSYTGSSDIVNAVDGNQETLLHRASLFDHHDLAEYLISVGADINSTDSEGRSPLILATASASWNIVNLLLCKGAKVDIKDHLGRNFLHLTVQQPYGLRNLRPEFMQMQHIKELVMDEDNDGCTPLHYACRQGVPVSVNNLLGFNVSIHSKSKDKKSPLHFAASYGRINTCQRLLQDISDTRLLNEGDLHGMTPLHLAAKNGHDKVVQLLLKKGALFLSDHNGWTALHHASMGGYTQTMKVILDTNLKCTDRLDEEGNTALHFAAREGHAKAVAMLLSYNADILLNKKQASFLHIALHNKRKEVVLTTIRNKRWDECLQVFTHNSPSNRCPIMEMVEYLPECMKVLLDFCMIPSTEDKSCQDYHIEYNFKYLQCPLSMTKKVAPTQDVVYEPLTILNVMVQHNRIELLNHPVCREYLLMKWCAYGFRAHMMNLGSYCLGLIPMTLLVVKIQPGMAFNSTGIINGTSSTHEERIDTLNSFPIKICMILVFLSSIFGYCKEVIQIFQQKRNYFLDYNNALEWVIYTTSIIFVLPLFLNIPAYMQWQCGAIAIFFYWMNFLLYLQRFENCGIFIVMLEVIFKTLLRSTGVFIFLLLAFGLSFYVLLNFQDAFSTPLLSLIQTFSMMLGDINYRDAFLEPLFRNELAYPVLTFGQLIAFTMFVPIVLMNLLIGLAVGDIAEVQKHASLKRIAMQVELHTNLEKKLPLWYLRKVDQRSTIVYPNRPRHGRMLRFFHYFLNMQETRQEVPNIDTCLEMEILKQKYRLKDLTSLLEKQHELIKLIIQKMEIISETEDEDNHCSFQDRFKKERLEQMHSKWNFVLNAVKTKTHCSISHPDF
Experimental: as §1

mouse cornea = assay: Eye wipes assay (corneal application); assay type: in vivo; conditions: wild-type mice, wiping measured for 1 minute
Experimental: All behavioral experiments were conducted during the light cycle at ambient temperature (23° C.). Behavioral assessment of scratching behavior was conducted as described previously (Mishra et al., 2011). Briefly, mice were injected intradermal into the nape of the neck with periostin (R&D), histamine, and chloroquine (all Millipore-Sigma) as previously described (Shimada and LaMotte, 2008). Compounds were diluted in PBS and the same was used as a vehicle. […] Additionally, cilengitide and periostin were combined together (mix) and injected i.d. into the dorsal neck of mouse. Scratching behavior was recorded for 30 minutes and data was presented in bouts per 30 minutes for mice. […] For eye wipes assay, periostin and capsaicin were dropped on mouse cornea and counted wipes for 1-minute. […] For dog's study, periostin (25 μg/25 μl) was injected in the dorsal neck (s.c.) and behavior was recorded and quantified for 30 minutes as “duration of pruritus manifestation” (DPM), as described earlier (Paps et al., 2016). […] When different raters separately scored a single tape, the ratings indicated high interrater reliability (coefficient of correlation, r>0.95). This method of itch readout in NHP has been used and accepted (Ko and Naughton, 2000). The behavior was recorded for 30 minutes duration and number of scratches quantified. […]

| Molecule | capsaicin-induced calcium response (TRPV1 receptor) | AITC-induced calcium response (TRPA1) | eye-wiping response to ocular application (mouse cornea) |
| --- | --- | --- | --- |
| CC(C)[C@H]1C(=O)N[C@@H](CCCN=C(N)N)C(=O)NCC(=O)N[C@@H](CC(=O)O)C(=O)N[C@H](Cc2ccccc2)C(=O)N1C [cilengitide, cyclo RGDf-n(Me)V] | did not reduce | did not reduce |  |
| B1 |  |  | No eye-wiping response |
